The target of the assay is fully phosphorylated, active Mouse ERK2 protein (Mus musculus, UniProt P63085). The assay can be described thus: Active ERK2 assay (AERK2), IMAP format. It is filed as biochemical. The settings on record: activated ERK2, IMAP fluorescence polarization, 30 μM ATP. As to the method:
14 μl of kinase buffer (10 mM Tris.HCl pH 7.2, 10 mM MgCl2, 0.01% Tween-20, 1 mM DTT) containing 0.4 ng unphosphorylated Mouse ERK2 protein can be added to each well of a black 384-well assay plate. […] DMSO concentration during initial incubation is 6.7%. ERK2 activity can be determined to be insensitive to DMSO concentrations up to 20%. ERK2 can then be activated and it's kinase activity can be measured by the addition of 10 μl kinase buffer with the following components (final concentration per reaction): 2 ng active (phosphorylated) human MEK1 protein and 4 μM (total) ERK2 IMAP substrate peptides (3.9 μM unlabeled IPTTPITTTYFFFK-CONH2 and 100 nM IPTTPITTTYFFFK(5-carboxyfluorescein)-CONH2) and 30 μM ATP. DMSO concentration during ERK activation can be 4%. After one hour, reactions can be terminated by addition of 60 μl IMAP detections beads in binding buffer (Molecular Devices). Binding can be allowed to equilibrate for 30 minutes before reading the plate on an LJL Analyst Fluorescence Polarization plate reader. […] Active compounds can be reconfirmed in an independent assay.
Activated ERK2 activity was also determined in the IMAP assay format using the procedure outlined above. 1 μl of 25× compound was added to 14 μl of kinase buffer containing 0.25 ng fully phosphorylated, active Mouse ERK2 protein. Following a 30 minute incubation, the reactions were initiated by addition of 10 μl of kinase buffer containing 1 μM ERK2 IMAP substrate peptide (0.9 μM unlabeled IPTTPITTTYFFFK-CONH2 and 100 nM IPTTPITTTYFFFK(5-carboxyfluorescein)-CONH2) and 30 μM ATP. Reactions proceeded for 30 minutes before termination by addition of 60 μl IMAP detection beads in binding buffer. Plates were read as above after 30 minute binding equilibration. Active compounds were reconfirmed in an independent assay.
(In general: Polarisation of emitted light reports the rotation of a fluorescent probe.)

fully phosphorylated, active Mouse ERK2 protein, sequence (P63085 whole entry): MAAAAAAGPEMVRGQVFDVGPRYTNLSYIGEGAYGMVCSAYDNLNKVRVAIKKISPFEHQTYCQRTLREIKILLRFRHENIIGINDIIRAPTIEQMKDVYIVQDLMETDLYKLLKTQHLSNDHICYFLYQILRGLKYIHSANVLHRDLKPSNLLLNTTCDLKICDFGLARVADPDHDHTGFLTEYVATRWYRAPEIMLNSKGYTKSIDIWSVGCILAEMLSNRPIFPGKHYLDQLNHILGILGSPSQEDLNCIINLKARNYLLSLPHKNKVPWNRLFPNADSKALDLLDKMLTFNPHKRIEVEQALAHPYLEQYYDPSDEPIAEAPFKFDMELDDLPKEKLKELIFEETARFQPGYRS

Turning to `Cc1n[nH]c2ccc(-c3n[nH]c4ccc(-n5cc([C@@H]6CCCN(Cc7c(F)cccc7F)C6)nn5)cc34)cc12` [Example 247, 5-[4-[1-[(2,6- DIFLUOROPHENYL)METHYL]- 3(R)-PIPERIDINYL]-1H- 1,2,3-TRIAZOL-1-YL]-3′- METHYL-3,5′-BI-1H- INDAZOLE], the IC50 was at least 504 nM.
On to `Fc1cccc(F)c1CN1CCC[C@@H](c2cn(-c3ccc4[nH]nc(-c5ccnc6[nH]ccc56)c4c3)nn2)C1` [Example 248, 5-[4-[1-[(2,6- DIFLUOROPHENYL)METHYL]- 3(R)-PIPERIDINYL]-1H- 1,2,3-TRIAZOL-1-YL]-3-(1H PYRROLO[2,3-b]PYRIDIN-4- YL)-1H-INDAZOLE], for which the half-inhibitory concentration (IC50) was at least 504 nM.
`Fc1ccccc1CN1CCOC(c2cn(-c3ccc4[nH]nc(-c5ccncc5)c4c3)nn2)C1` (stereo not shown) [Example 249, 5-[4-[4-[(2- FLUOROPHENYL)METHYL]- 2-MORPHOLINYL]-1H-1,2,3- TRIAZOL-1-YL]-3-(4- PYRIDINYL)-1H-INDAZOLE] had an IC50 of 0.3 to 10.4 nM.
The figure for `COc1cccc(F)c1CN1CCOC(c2cn(-c3ccc4[nH]nc(-c5ccncc5)c4c3)nn2)C1` (stereo not shown) [Example 251, 5-[4-[4-[(2-FLUORO-6- METHOXYPHENYL)METHYL]- 2-MORPHOLINYL]-1H- 1,2,3-TRIAZOL-1-YL]-3-(4- PYRIDINYL)-1H-INDAZOLE] is 0.3 to 10.4 nM.
The figure for `COc1cccc(F)c1CN1CC=CC[C@@H]1c1nc(-c2ccc3[nH]nc(-c4ccc5c(c4)CCO5)c3c2)n[nH]1` [Example 253, 3-(2,3-DIHYDRO-5- BENZOFURANYL)-5-[5-[1-[(2- FLUORO-6- METHOXYPHENYL)METHYL]- 1,2,3,6-TETRAHYDRO- 2(R)-PYRIDINYL]-1H-1,2,4- TRIAZOL-3-YL]-1H- INDAZOLE] is at least 504 nM; for `Fc1cccc(F)c1CN1CC=CC[C@@H]1c1nc(-c2ccc3[nH]nc(-c4ccc5c(c4)CCO5)c3c2)n[nH]1` [Example 254, 5-[5-[1-[(2,6- DIFLUOROPHENYL)METHYL]- 1,2,3,6-TETRAHYDRO- 2(R)-PYRIDINYL]-1H-1,2,4- TRIAZOL-3-YL]-3-(2,3- DIHYDRO-5- BENZOFURANYL)-1H- INDAZOLE] it is at least 504 nM.
In turn, `C1=CCN(Cc2cccs2)[C@@H](c2nc(-c3ccc4[nH]nc(-c5ccc6c(c5)CCO6)c4c3)n[nH]2)C1` [Example 255, 3-(2,3-DIHYDRO-5- BENZOFURANYL)-5-[5- [1,2,3,6-TETRAHYDRO-1-(2- THIENYLMETHYL)-2(R)- PYRIDINYL]-1H-1,2,4- TRIAZOL-3-YL]-1H- INDAZOLE] yielded an IC50 of at least 504 nM.
`C1=CCN(Cc2ccon2)[C@@H](c2nc(-c3ccc4[nH]nc(-c5ccc6c(c5)CCO6)c4c3)n[nH]2)C1` [Example 256, 3-(2,3-DIHYDRO-5- BENZOFURANYL)-5-[5- [1,2,3,6-TETRAHYDRO-1-(3- ISOXAZOLYLMETHYL)-2(R)- PYRIDINYL]-1H-1,2,4- TRIAZOL-3-YL]-1H- INDAZOLE] gave a 50% inhibitory concentration (IC50) of at least 504 nM.
The figure for `COc1cccc(F)c1CN1CCCCC1c1nc(-c2ccc3[nH]nc(-c4ccc5c(c4)CCO5)c3c2)n[nH]1` (stereo not shown) [Example 258, 3-(2,3-DIHYDRO-5- BENZOFURANYL)-5-[5-[1-[(2- FLUORO-6- METHOXYPHENYL)METHYL]- 2-PIPERIDINYL]-1H-1,2,4- TRIAZOL-3-YL]-1H- INDAZOLE] is over 1000 nM; for `COc1cccc(F)c1CN1CCCCC1c1nc(-c2ccc3[nH]nc(-c4ccc(OC(C)C)cc4)c3c2)n[nH]1` (stereo not shown) [Example 259, 5-[5-[1-[(2-FLUORO-6- METHOXYPHENYL)METHYL]- 2-PIPERIDINYL]-1H-1,2,4- TRIAZOL-3-YL]-3-[4-(1- METHYLETHOXY)PHENYL]- 1H-INDAZOLE] it is over 1000 nM.
The figure for `c1csc(CN2CCC[C@@H](c3nc(-c4ccc5[nH]nc(-c6ccc7c(c6)CCO7)c5c4)n[nH]3)C2)c1` [Example 298, 3-(2,3-DIHYDRO-5- BENZOFURANYL)-5-[5-[1-(2- THIENYLMETHYL)-3(R)- PIPERIDINYL]-1H-1,2,4- TRIAZOL-3-YL]-1H- INDAZOLE] is at least 504 nM; for `CC(C)Oc1ccc(-c2n[nH]c3ccc(-c4n[nH]c([C@@H]5CCCN(Cc6c(F)cccc6F)C5)n4)cc23)cc1` [Example 299, 5-[5-[1-[(2,6- DIFLUOROPHENYL)METHYL]- 3(R)-PIPERIDINYL]-1H- 1,2,4-TRIAZOL-3-YL]-3-[4-(1- METHYLETHOXY)PHENYL]- 1H-INDAZOLE] it is at least 504 nM; for `CC1(C)Cc2cc(-c3n[nH]c4ccc(-c5n[nH]c([C@@H]6CCCN(Cc7c(F)cccc7F)C6)n5)cc34)ccc2O1` [Example 300, 5-[5-[1-[(2,6- DIFLUOROPHENYL)METHYL]- 3(R)-PIPERIDINYL]-1H- 1,2,4-TRIAZOL-3-YL]-3-(2,3- DIHYDRO-2,2-DIMETHYL-5- BENZOFURANYL)-1H- INDAZOLE] it is at least 504 nM.
The figure for `Fc1cccc(F)c1CN1CCC[C@@H](c2nc(-c3ccc4[nH]nc(-c5ccc(C(F)(F)F)cc5)c4c3)n[nH]2)C1` [Example 301, 5-[5-[1-[(2,6- DIFLUOROPHENYL)METHYL]- 3(R)-PIPERIDINYL]-1H- 1,2,4-TRIAZOL-3-YL]-3-[4- (TRIFLUOROMETHYL)PHEN- YL]-1H-INDAZOLE] is at least 504 nM.
In the case of `Fc1cccc(F)c1CN1CCC[C@@H](c2nc(-c3ccc4[nH]nc(-c5ccnc(F)c5F)c4c3)n[nH]2)C1` [Example 302, 5-[5-[1-[(2,6- DIFLUOROPHENYL)METHYL]- 3(R)-PIPERIDINYL]-1H- 1,2,4-TRIAZOL-3-YL]-3-(2,3- DIFLUORO-4-PYRIDINYL)- 1H-INDAZOLE], the half-inhibitory concentration (IC50) is at least 504 nM.
In turn, `Cc1noc(C)c1-c1n[nH]c2ccc(-c3n[nH]c([C@@H]4CCCN(Cc5c(F)cccc5F)C4)n3)cc12` [Example 303, 5-[5-[1-[(2,6- DIFLUOROPHENYL)METHYL]- 3(R)-PIPERIDINYL]-1H- 1,2,4-TRIAZOL-3-YL]-3-(3,5- DIMETHYL-4-ISOXAZOLYL)- 1H-INDAZOLE] displayed an IC50 of at least 504 nM.
The figure for `CC(C)Oc1ccc(-c2n[nH]c3ccc(-c4n[nH]c([C@@H]5CCCN(Cc6cccs6)C5)n4)cc23)cc1` [Example 304, 3-[4-(1- METHYLETHOXY)PHENYL]- 5-[5-[1-(2- THIENYLMETHYL)-3(R)- PIPERIDINYL]-1H-1,2,4- TRIAZOL-3-YL]-1H- INDAZOLE] is at least 504 nM.
The figure for `CC(C)Sc1ccc(-c2n[nH]c3ccc(-c4n[nH]c([C@@H]5CCCN(Cc6c(F)cccc6F)C5)n4)cc23)cc1` [Example 305, 5-[5-[1-[(2,6- DIFLUOROPHENYL)METHYL]- 3(R)-PIPERIDINYL]-1H- 1,2,4-TRIAZOL-3-YL]-3-[4-[(1- METHYLETHYL)THIO]PHEN- YL]-1H-INDAZOLE] is at least 504 nM.
Compound `Fc1ccccc1CN1CCCC(c2nnc(-c3ccc4[nH]nc(-c5ccncc5)c4c3)o2)C1` (stereo not shown) [Example 306, 5-[5-[1-[(2- FLUOROPHENYL)METHYL]- 3-PIPERIDINYL]-1,3,4- OXADIAZOL-2-YL]-3-(4- PYRIDINYL)-1H-INDAZOLE] yielded an IC50 of 0.3 to 10.4 nM.
The figure for `c1ccc(CN2CCCC(c3nnc(-c4ccc5[nH]nc(-c6ccc7c(c6)CCO7)c5c4)o3)C2)cc1` (stereo not shown) [Example 307, 3-(2,3-DIHYDRO-5- BENZOFURANYL)-5-[5-[1- (PHENYLMETHYL)-3- (PIPERIDINYL]-1,3,4- OXADIAZOL-2-YL]-1H- INDAZOLE] is over 1000 nM; for `Clc1cc(-c2n[nH]c3ccc(-c4nnc(C5CCCN(Cc6ccccc6)C5)o4)cc23)ccn1` (stereo not shown) [Example 309, 3-(2-CHLORO-4-PYRIDINYL)- 5-[5-[1-(PHENYLMETHYL)-3- PIPERIDINYL]-1,3,4- OXADIAZOL-2-YL]-1H- INDAZOLE] it is over 1000 nM.
The figure for `COc1cccc(F)c1CN1CCC[C@@H](c2nnc(-c3ccc4[nH]nc(-c5ccc(O)c(NC(C)=O)c5)c4c3)o2)C1` [Example 314, N-[5-[5-[5-[1-[(2-FLUORO-6- METHOXYPHENYL)METHYL]- 3(R)-PIPERIDINYL]-1,3,4- OXADIAZOL-2-YL]-1H- INDAZOL-3-YL]-2- HYDROXYPHENYL] ACETAMIDE] is 0.3 to 10.4 nM; for `CC(=O)Nc1cc(-c2n[nH]c3ccc(-c4nnc([C@@H]5CCCN(Cc6ccc7nccnc7c6)C5)o4)cc23)ccc1O` [Example 316, N-[2-HYDROXY-5-[5-[5-[1-(6- QUINOXALINYLMETHYL)- 3(R)-PIPERIDINYL]-1,3,4- OXADIAZOL-2-YL]-1H- INDAZOL-3- YL]PHENYL]ACETAMIDE] it is at least 504 nM; for `Cn1cc2cc(-c3n[nH]c4ccc(-c5nnc([C@@H]6CCCN(Cc7cc8ccccc8n7C)C6)o5)cc34)ccc2n1` [Example 321, 3-(2-METHYL-2H-INDAZOL- 5-YL)-5-[5-[1-[(1-METHYL- 1H-INDOL-2-YL)METHYL]- 3(R)-PIPERIDINYL]-1,3,4- OXADIAZOL-2-YL]-1H- INDAZOLE] it is over 1000 nM.
The figure for `COc1cccc(F)c1CN1CCC[C@@H](c2nnc(-c3ccc4[nH]nc(-c5ccc6nn(C)cc6c5)c4c3)o2)C1` [Example 322, 5-[5-[1-[(2-FLUORO-6- METHOXYPHENYL)METHYL]- 3(R)-PIPERIDINYL]-1,3,4- OXADIAZOL-2-YL]-3-(2- METHYL-2H-INDAZOL-5- YL)-1H-INDAZOLE] is 0.3 to 10.4 nM.

The term IC50 denotes the concentration at which inhibition is half-maximal. Low readings indicate greater potency, high ones weaker potency.
